Tests used:
Type in all cases: in vivo
[1] = system: southern root-knot nematode (Meloidogyne incognita); experiment: Meloidogyne incognita test; conditions: 336 h, after 14 days, read-out: nematicidal activity (gall formation)
Procedure: Solvent: 125.0 parts by weight of acetone
To produce a suitable preparation of active compound, 1 part by weight of active compound is mixed with the stated amount of solvent, and the concentrate is diluted with water to the desired concentration.
Vessels are filled with sand, a solution of the active ingredient, a suspension containing eggs and larvae of the southern root-knot nematode (Meloidogyne incognita) and salad seeds. The salad seeds germinate and the seedlings grow. Galls develop in the roots.
After 14 days the nematicidal activity is determined on the basis of the percentage of gall formation. 100% means no galls were found and 0% means the number of galls found on the roots of the treated plants was equal to that in untreated control plants.

[2] = system: adult engorged female ticks (Rhipicephalus microplus); experiment: Rhipicephalus (Boophilus) microplus injection test; conditions: 168 h, egg deposition after 7 days, read-out: efficacy (infertile eggs); for pest or weed control at 0.004 mg: 4 μg/animal; for pest or weed control at 0.02 mg: 20 μg/animal
Outline: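 Efficacy is the share of infertile eggs: 100% means none are fertile, 0% means all are fertile. Egg deposition was checked 7 days after injecting 1 μL of DMSO-diluted compound into the abdomen of five engorged female R. microplus, with doubtful eggs kept about 42 days to hatching. The stock was 10 mg in 0.5 mL DMSO.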

[3] = system: adult unfed cat fleas (Ctenocephalides felis); experiment: Ctenocephalides felis oral test; conditions: 48 h, 100 ppm in cattle blood, after 2 days
Outline: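 Percent flea mortality recorded at 2 days. Compound was dissolved in dimethyl sulfoxide and diluted into cattle blood, which ~20 unfed adult cat fleas ingested through parafilm from a 37°C-heated chamber, their own chamber kept at room temperature.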

[4] = system: larvae of the banded cucumber beetle (Diabrotica balteata); experiment: Diabrotica balteata spray test; conditions: 168 h, after 7 days, wheat seeds, read-out: efficacy (seedlings grown up); for pest or weed control at 32 µg/disc, 100 g/ha: 100 g/ha (=32 μg/well)
Outline: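 Efficacy (%) read at day 7: 100% means seedlings grew like untreated, uninfested controls; 0% means no seedlings grew. Wheat seeds germinated 1 day on agar, sprayed with emulsified compound solution (1000 ppm emulsifier in water), then each well infested with 10-20 larvae.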

[5] = system: adult cat fleas (Ctenocephalides felis); experiment: Ctenocephalides felis in-vitro contact test, adult cat flea; conditions: 5 μg/cm^2 (=500 g/ha), after 48 hours, read-out: efficacy (fleas dead or moribund)
Outline: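 Efficacy (%) counts fleas that are dead or moribund, meaning unable to escape heat (45-50 °C, ≤5 min) by climbing. Scoring was done 48 h after 5-10 adults were placed at room temperature in glass tubes. The tubes carried a dried acetone film of compound, 5 μg/cm^2 at 900 ppm.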

[6] = system: caterpillars of the fall army worm (Spodoptera frugiperda); experiment: Spodoptera frugiperda spray test (cotton leaves); conditions: 168 h
Procedure: Solvent: 14 parts by weight of dimethylformamide
Emulsifier: alkylaryl polyglycol ether
(§1) To produce a suitable preparation of active compound, 1 part by weight of active compound is mixed with the stated amount of solvent and is diluted with water, containing an emulsifier concentration of 1000 ppm, to the desired concentration. Further test concentrations are prepared by dilution with emulsifier containing water. Ammonium salt and/or penetration enhancer in a dosage of 1000 ppm are added to the desired concentration if necessary.
Cotton leaves (Gossypium hirsutum) are treated by being sprayed with the preparation of the active compound of the desired concentration and are infested with caterpillars of the fall army worm (Spodoptera frugiperda).
After 7 days mortality in % is determined. 100% means all the caterpillars have been killed and 0% means none of the caterpillars have been killed.

[7] = system: fall armyworm larvae (Spodoptera frugiperda); experiment: Spodoptera frugiperda spray test (maize leaf sections); conditions: 168 h
Outline: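 Percent kill of Spodoptera frugiperda larvae was recorded 7 days after infesting dried, treated maize leaf sections. Spray solutions were made from an acetone/DMF compound preparation diluted with 1000 ppm emulsifier-containing water.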

[8] = system: adult brown dog ticks (Rhipicephalus sanguineus); experiment: Rhipicephalus sanguineus in-vitro contact test with adult brown dog ticks; conditions: after 48 hours, read-out: efficacy (ticks dead or moribund); for pest or weed control at 1 µg/cm2, 100 g/ha: 1 μg/cm^2 (=100 g/ha); for pest or weed control at 5 µg/cm2, 500 g/ha: 5 μg/cm^2 (=500 g/ha)
Outline: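 Efficacy is the percentage of adult ticks dead or moribund, meaning immotile or uncoordinated and unable to escape 45-50° C. heat within 5 min. Read 48 h after 5-10 ticks were enclosed at room temperature in acetone-coated glass tubes. Dose 5 μg/cm^2, from a 900 ppm coating solution.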

[9] = system: green peach aphid (Myzus persicae); experiment: Myzus persicae oral test; conditions: 120 h
Outline: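 Five-day oral feeding assay measuring percent mortality of a mixed aphid population that draws compound-containing sugared IPL41 medium through sealing parafilm; the test preparation derives from 1 part compound per 100 parts acetone, diluted with water.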

[10] = system: green peach aphid (Myzus persicae); experiment: Myzus persicae spray test; conditions: foliar, 120 h, 100 g/ha, after 5 days, Chinese cabbage leaf disks
Procedure: Solvent: 78.0 parts by weight acetone • 1.5 parts by weight dimethylformamide
Emulsifier: alkylarylpolyglycol ether
as §1, with “solvents” for “solvent”, “water.” for “water. Ammonium salt and/or penetration enhancer in a dosage of 1000 ppm are added to the desired concentration if necessary.”
Chinese cabbage (Brassica pekinensis) leaf disks infected with all instars of the green peach aphid (Myzus persicae), are sprayed with a preparation of the active ingredient of the desired concentration.
After 5 days mortality in % is determined. 100% means all aphids have been killed and 0% means none of the aphids have been killed.

[11] = system: cattle tick larvae (Rhipicephalus microplus), strain Parkhurst, resistant against synthetic pyrethroids; experiment: Rhipicephalus (Boophilus) microplus in-vitro contact test, larval cattle tick; conditions: 5 μg/cm^2 (=500 g/ha), after 48 hours, read-out: efficacy (larvae dead or moribund)
Outline: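 Efficacy, 100% meaning all larvae dead or moribund, was judged at 48 h from loss of negative geotactic climbing. Larvae of the Parkhurst strain, 20–50 per tube, were exposed at 27° C and 85% humidity to acetone-coated tube surfaces; 900 ppm corresponded to 5 μg/cm^2.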

[12] = system: larvae of the southern green stink bug (Nezara viridula); experiment: Nezara viridula spray test; conditions: in Hordeum vulgare, 96 h
Outline: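 Percent mortality of southern green stink bug larvae read 4 days after spraying infested Hordeum vulgare. Test solutions: compound in acetone plus dimethylformamide, diluted with emulsifier-containing water (1000 ppm alkylarylpolyglycol ether).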

[13] = system: brown planthopper (Nilaparvata lugens); experiment: Nilaparvata lugens spray test; conditions: in Oryza sativa, 96 h
Outline: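 Rice plants (Oryza sativa) sprayed with compound in acetone/DMF diluted in water containing 1000 ppm alkylarylpolyglycol ether emulsifier, then infested with planthoppers. Mortality % scored after 4 days (100% = all killed, 0% = none killed).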

CC(NC(=O)c1cc(Cl)cc(S(C)(=O)=O)c1)c1nc([S+]([O-])CC(F)(F)F)nn1-c1ccc(Cl)cn1 (stereo not shown) [I-066]
pest or weed control at 20 ppm [1]: 90% | pest or weed control at 0.004 mg [2]: 100% | pest or weed control at 0.02 mg [2]: 100% | mortality at 100 ppm [3]: 100%

CNc1nc(C(C)NC(=O)c2cc(OC(F)(F)F)cc(C3CC3)c2)n(-c2ncccn2)n1 (stereo not shown) [I-101]
pest or weed control at 32 µg/disc, 100 g/ha [4]: 100% | pest or weed control at 5 µg/cm2 [5]: 100% | mortality at 20 ppm [6]: 100% | mortality at 100 g/ha [7]: 100% | pest or weed control at 1 µg/cm2, 100 g/ha [8]: 100% | pest or weed control at 5 µg/cm2, 500 g/ha [8]: 100% | mortality at 4 ppm [9]: 100% | mortality at 100 g/ha [10]: 90% | pest or weed control at 5 µg/cm2 [11]: 100% | pest or weed control at 0.004 mg [2]: 100% | mortality at 100 ppm [3]: 100%

CC(NC(=O)c1cc(Cl)cc(Cl)c1)c1nc(-c2ncccn2)nn1-c1ncccn1 (stereo not shown) [I-054]
pest or weed control at 20 ppm [1]: 90% | mortality at 4 ppm [9]: 90% | pest or weed control at 0.02 mg [2]: 100% | mortality at 100 ppm [3]: 100%

C[C@H](NC(=O)c1cc(Br)cc(Br)c1)c1nc(N(C)C)nn1-c1ncccn1 [I-140]
mortality at 500 g/ha [12]: 90% | pest or weed control at 32 µg/disc, 100 g/ha [4]: 100% | pest or weed control at 5 µg/cm2 [5]: 100% | mortality at 20 ppm [6]: 100% | mortality at 500 g/ha [13]: 90% | mortality at 100 g/ha [7]: 100% | pest or weed control at 1 µg/cm2, 100 g/ha [8]: 100% | pest or weed control at 5 µg/cm2, 500 g/ha [8]: 100% | mortality at 100 g/ha [10]: 90% | pest or weed control at 5 µg/cm2 [11]: 100%

C[C@H](NC(=O)c1cc(OC(F)(F)F)cc(C2CC2)c1)c1nc(N2CCOCC2)nn1-c1ncccn1 [I-146]
mortality at 500 g/ha [12]: 100% | pest or weed control at 32 µg/disc, 100 g/ha [4]: 100% | pest or weed control at 20 ppm [1]: 100% | mortality at 100 g/ha [7]: 100% | pest or weed control at 5 µg/cm2 [11]: 90%

CC(NC(=O)c1cc(Cl)cc(C(F)(F)F)c1)c1nc(-c2ncccn2)nn1-c1ncccn1 (stereo not shown) [I-055]
mortality at 100 g/ha [12]: 100% | mortality at 500 g/ha [12]: 100% | pest or weed control at 160 µg/disc, 500 g/ha ([4]; 500 g/ha (=160 μg/well)): 100% | pest or weed control at 20 ppm [1]: 90% | pest or weed control at 0.02 mg [2]: 100% | mortality at 100 ppm [3]: 100%

CON(C)c1nc([C@H](C)NC(=O)c2cc(OC(F)(F)F)cc(C3CC3)c2)n(-c2ncccn2)n1 [I-152]
mortality at 500 g/ha [12]: 100% | pest or weed control at 32 µg/disc, 100 g/ha [4]: 100% | mortality at 20 ppm [6]: 100% | mortality at 500 g/ha [13]: 100% | mortality at 100 g/ha [7]: 100% | mortality at 100 g/ha [10]: 90%
